Test results as given in publication PMC10882719 (Frontiers in Neuroscience, 2024).
Like-named read-outs stand apart in the source and are kept apart here.

Columns and labels:
Format in all cases: cell-based
168 GPCRs [1] = target: T1, 168 GPCRs (Homo sapiens, UniProt P35372); conditions: OPRM1
T1 construct: host or cells: PathHunter cell lines

168 GPCRs [2] = target: T2, 168 GPCRs (Homo sapiens, UniProt P08913); conditions: ADRA2A
T2 construct: host or cells: PathHunter cell lines
T2 sequence (P08913 1-465): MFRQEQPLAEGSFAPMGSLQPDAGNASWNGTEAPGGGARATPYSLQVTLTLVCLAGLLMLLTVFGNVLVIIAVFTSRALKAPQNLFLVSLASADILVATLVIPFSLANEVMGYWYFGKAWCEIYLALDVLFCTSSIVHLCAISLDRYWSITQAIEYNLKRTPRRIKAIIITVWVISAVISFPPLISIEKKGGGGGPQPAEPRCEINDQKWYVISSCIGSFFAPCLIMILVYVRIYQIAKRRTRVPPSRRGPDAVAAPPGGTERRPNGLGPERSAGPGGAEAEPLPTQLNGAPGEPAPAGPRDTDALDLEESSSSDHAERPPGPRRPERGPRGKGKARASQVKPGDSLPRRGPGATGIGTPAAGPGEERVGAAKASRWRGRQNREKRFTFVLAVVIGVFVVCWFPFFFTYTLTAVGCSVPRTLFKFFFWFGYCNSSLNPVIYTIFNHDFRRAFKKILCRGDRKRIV

168 GPCRs [3] = target: T3, 168 GPCRs (Homo sapiens, UniProt Q9P296)
T3 construct: host or cells: PathHunter cell lines
T3 sequence (Q9P296 whole entry): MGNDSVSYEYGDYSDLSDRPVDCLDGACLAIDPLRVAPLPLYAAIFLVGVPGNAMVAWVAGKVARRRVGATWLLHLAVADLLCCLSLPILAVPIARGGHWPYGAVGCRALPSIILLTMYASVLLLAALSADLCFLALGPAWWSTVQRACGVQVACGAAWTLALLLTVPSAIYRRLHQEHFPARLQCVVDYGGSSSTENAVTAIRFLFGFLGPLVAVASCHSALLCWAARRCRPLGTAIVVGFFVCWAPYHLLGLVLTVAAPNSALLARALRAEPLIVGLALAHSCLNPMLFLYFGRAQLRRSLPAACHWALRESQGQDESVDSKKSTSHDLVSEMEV

168 GPCRs [4] = target: T4, 168 GPCRs (Homo sapiens, UniProt O43614)
T4 construct: host or cells: PathHunter cell lines
T4 sequence (O43614 1-444): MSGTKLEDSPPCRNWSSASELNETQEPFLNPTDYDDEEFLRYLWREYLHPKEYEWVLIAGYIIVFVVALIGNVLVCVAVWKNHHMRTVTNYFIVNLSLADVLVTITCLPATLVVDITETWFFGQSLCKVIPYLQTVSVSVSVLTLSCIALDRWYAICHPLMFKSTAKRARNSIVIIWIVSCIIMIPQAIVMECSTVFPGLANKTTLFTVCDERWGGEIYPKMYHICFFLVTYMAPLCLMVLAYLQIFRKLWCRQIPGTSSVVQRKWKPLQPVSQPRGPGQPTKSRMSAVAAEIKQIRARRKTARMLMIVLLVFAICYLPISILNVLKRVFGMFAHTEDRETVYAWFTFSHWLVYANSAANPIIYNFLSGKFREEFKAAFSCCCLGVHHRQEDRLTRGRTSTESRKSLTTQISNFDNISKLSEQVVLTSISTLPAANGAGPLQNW

168 GPCRs [5] = target: T5, 168 GPCRs (Homo sapiens, UniProt P51582); conditions: P2RY4
T5 construct: host or cells: PathHunter cell lines
T5 sequence (P51582 whole entry): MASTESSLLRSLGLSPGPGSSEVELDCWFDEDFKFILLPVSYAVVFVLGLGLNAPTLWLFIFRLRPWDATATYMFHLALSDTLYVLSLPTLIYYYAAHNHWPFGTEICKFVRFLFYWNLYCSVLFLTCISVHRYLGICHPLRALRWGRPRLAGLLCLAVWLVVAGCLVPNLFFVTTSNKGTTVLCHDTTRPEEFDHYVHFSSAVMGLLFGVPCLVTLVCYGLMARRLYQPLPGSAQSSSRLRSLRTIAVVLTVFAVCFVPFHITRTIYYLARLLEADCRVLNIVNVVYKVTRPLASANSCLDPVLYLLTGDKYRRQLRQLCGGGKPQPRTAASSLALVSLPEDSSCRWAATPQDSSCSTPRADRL

168 GPCRs [6] = target: T6, 168 GPCRs (Homo sapiens, UniProt Q15722); conditions: LTB4R
T6 construct: host or cells: PathHunter cell lines
T6 sequence (Q15722 whole entry): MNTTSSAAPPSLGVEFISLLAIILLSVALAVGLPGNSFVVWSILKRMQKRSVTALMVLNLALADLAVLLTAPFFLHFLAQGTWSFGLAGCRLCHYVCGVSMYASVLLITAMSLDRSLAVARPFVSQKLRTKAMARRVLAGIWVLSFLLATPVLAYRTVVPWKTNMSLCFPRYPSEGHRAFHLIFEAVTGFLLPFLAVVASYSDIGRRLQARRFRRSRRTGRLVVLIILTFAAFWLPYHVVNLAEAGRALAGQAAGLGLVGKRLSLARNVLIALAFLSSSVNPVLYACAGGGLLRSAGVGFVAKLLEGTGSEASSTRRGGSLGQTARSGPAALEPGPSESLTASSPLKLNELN

168 GPCRs [7] = target: T7, 168 GPCRs (Homo sapiens, UniProt P21731); conditions: TBXA2R
T7 construct: host or cells: PathHunter cell lines
T7 sequence (P21731 1-343): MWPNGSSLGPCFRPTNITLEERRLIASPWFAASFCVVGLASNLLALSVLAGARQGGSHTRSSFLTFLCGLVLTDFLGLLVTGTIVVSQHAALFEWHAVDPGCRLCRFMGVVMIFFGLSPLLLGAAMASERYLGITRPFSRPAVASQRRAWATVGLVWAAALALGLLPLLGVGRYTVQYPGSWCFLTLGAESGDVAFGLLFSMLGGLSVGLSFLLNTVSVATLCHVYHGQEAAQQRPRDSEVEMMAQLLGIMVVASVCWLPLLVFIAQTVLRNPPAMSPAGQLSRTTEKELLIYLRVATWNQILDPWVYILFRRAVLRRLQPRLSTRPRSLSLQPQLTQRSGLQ

168 GPCRs [8] = target: T8, 168 GPCRs (Homo sapiens, UniProt Q8TDV5)
T8 construct: host or cells: PathHunter cell lines
T8 sequence (Q8TDV5 1-335): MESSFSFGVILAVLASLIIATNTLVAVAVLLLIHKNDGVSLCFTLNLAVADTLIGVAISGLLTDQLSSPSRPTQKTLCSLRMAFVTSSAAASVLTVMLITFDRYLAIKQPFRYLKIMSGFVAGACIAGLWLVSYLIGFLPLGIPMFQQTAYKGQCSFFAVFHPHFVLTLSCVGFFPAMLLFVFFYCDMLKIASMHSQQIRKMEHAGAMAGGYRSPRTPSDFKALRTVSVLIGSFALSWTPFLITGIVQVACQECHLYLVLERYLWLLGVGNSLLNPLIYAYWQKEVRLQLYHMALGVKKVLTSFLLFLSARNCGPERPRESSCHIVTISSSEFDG

T1 sequence (P35372 whole entry): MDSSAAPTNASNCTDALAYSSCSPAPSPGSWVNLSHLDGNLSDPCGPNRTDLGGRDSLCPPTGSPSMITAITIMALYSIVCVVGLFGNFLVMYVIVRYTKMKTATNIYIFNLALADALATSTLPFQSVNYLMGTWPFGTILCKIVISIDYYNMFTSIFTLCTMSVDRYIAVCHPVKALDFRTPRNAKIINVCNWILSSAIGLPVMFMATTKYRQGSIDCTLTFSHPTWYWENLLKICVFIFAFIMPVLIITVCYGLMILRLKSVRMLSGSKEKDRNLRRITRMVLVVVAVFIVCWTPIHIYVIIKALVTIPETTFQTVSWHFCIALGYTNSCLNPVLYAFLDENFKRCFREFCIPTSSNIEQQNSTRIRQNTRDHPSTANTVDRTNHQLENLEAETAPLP

SMILES	% Agonist Activity (168 GPCRs [1]; Conc 1 uM) [%]	% Antagonist Activity (168 GPCRs [1]; Conc 1 uM) [%]	% Agonist Activity (168 GPCRs [1]; Conc 10 uM) [%]	% Antagonist Activity (168 GPCRs [1]; Conc 10 uM) [%]	% Agonist Activity (168 GPCRs [2]; 1 uM) [%]	% Antagonist Activity (168 GPCRs [2]; 1 uM) [%]	% Agonist Activity (168 GPCRs [2]; 10 uM) [%]	% Antagonist Activity (168 GPCRs [2]; 10 uM) [%]	% Agonist Activity (168 GPCRs [3]; C5L2, 1 uM) [%]	% Antagonist Activity (168 GPCRs [3]; C5L2, 1 uM) [%]	% Agonist Activity (168 GPCRs [3]; C5L2, 10 uM) [%]	% Antagonist Activity (168 GPCRs [3]; C5L2, 10 uM) [%]	% Agonist Activity (168 GPCRs [4]; HCRTR2, 1 uM) [%]	% Antagonist Activity (168 GPCRs [4]; HCRTR2, 1 uM) [%]	% Agonist Activity (168 GPCRs [4]; HCRTR2, 10 uM) [%]	% Antagonist Activity (168 GPCRs [4]; HCRTR2, 10 uM) [%]	% Agonist Activity (168 GPCRs [5]; Conc 1 uM) [%]	% Antagonist Activity (168 GPCRs [5]; Conc 1 uM) [%]	% Agonist Activity (168 GPCRs [5]; Conc 10 uM) [%]	% Antagonist Activity (168 GPCRs [5]; Conc 10 uM) [%]	other results
CNC(C)Cc1ccc2c(c1)OCO2 (stereo not shown) [MDMA, 3,4-Methylenedioxy methamphetamine, reference compound]	-0.4	-22.1	-0.2	-18.9	7	-5	6.5	-13.9	7.7	-5.5	3.3	-4	-0.3	5.9	-0.1	-3.5	-4.2	5.7	-7.2	-0.6	% Agonist Activity (168 GPCRs [6]; 1 uM): 0.5%; % Antagonist Activity (168 GPCRs [6]; 1 uM): 8.9%; % Agonist Activity (168 GPCRs [6]; 10 uM): 0.5%; % Antagonist Activity (168 GPCRs [6]; 10 uM): 11.3%; % Agonist Activity (168 GPCRs [7]; Conc 1 uM): 2.8%; % Antagonist Activity (168 GPCRs [7]; Conc 1 uM): 9.4%; % Agonist Activity (168 GPCRs [7]; Conc 10 uM): 1.6%; % Antagonist Activity (168 GPCRs [7]; Conc 10 uM): 14.2%; % Agonist Activity (168 GPCRs [8]; GPR119, 1 uM): 17.1%; % Antagonist Activity (168 GPCRs [8]; GPR119, 1 uM): 2.7%; % Agonist Activity (168 GPCRs [8]; GPR119, 10 uM): 10.2%; % Antagonist Activity (168 GPCRs [8]; GPR119, 10 uM): 3.8%
CNC(C)C(=O)c1ccc2c(c1)OCO2 (stereo not shown) [methylone]	0.2	-8	0.5	-18	-3.8	-4.6	-3.8	1.9	8.4	10	12.9	1.4	0.2	6.4	0.2	2.4	-3.3	15.1	-4.1	17.5	% Agonist Activity (168 GPCRs [6]; 1 uM): -0.3%; % Antagonist Activity (168 GPCRs [6]; 1 uM): 3.5%; % Agonist Activity (168 GPCRs [6]; 10 uM): -0.8%; % Antagonist Activity (168 GPCRs [6]; 10 uM): -5.2%; % Agonist Activity (168 GPCRs [7]; Conc 1 uM): -1.1%; % Antagonist Activity (168 GPCRs [7]; Conc 1 uM): -5.5%; % Agonist Activity (168 GPCRs [7]; Conc 10 uM): -2.9%; % Antagonist Activity (168 GPCRs [7]; Conc 10 uM): -19.7%; % Agonist Activity (168 GPCRs [8]; GPR119, 1 uM): -5.8%; % Antagonist Activity (168 GPCRs [8]; GPR119, 1 uM): 17.1%; % Agonist Activity (168 GPCRs [8]; GPR119, 10 uM): -2.2%; % Antagonist Activity (168 GPCRs [8]; GPR119, 10 uM): -8.8%
